# According to patent publication US20070173462A1, “Treatment of diseases associated with the use of antibiotics” (Optimer Pharmaceuticals, Inc., priority 2004, published 2007):
# Where two headings read alike, the source gives them in different places.
# Experiments:
# C. difficile = assay: MIC via agar dilution, 110 genetically distinct clinical isolates of C. difficile; type: cell-based
# toxigenic C. difficile = assay: Hamster model of clindamycin-induced Clostridium difficile associated diarrhea/colitis; type: in vivo, Syrian hamsters; settings: oral treatment for 7 days; untreated infection uniformly fatal between days two and six
# Description: Animals were treated with two oral doses of clindamycin at 100 mg/kg. Three days after the second dose of clindamycin, they were inoculated with toxigenic C. difficile spores. […] Animals were observed daily for the presence or absence of diarrhea. Necropsies were performed on some animals that died during the experiment, and cecal contents were assayed for C. difficile toxin A. Hamsters were monitored for 20 days, and the cumulative mortality during this period was recorded (FIG. 1).
smiles,measurement,setting,value
Cc1ncc([N+](=O)[O-])n1CCO [Metronidazole],Range (MIC),"C. difficile; 110 clinical isolates, agar dilution",0.025 to 0.5 µg/mL
same,MIC,"C. difficile; Clostridioides difficile, isolate ORG ID 61 5930, read-out: MIC",0.25 µg/mL
same,MIC,"C. difficile; Clostridioides difficile, isolate ORG ID 63 6029, read-out: MIC",0.25 µg/mL
same,MIC,"C. difficile; Clostridioides difficile, isolate ORG ID 64 5940, read-out: MIC",0.25 µg/mL
same,MIC,"C. difficile; Clostridioides difficile, isolate ORG ID 65 5967, read-out: MIC",0.25 µg/mL
same,MIC,"C. difficile; Clostridioides difficile, isolate ORG ID 67 6367, read-out: MIC",0.25 µg/mL
same,MIC,"C. difficile; Clostridioides difficile, isolate ORG ID 69 6370, read-out: MIC",0.25 µg/mL
same,MIC,"C. difficile; Clostridioides difficile, isolate ORG ID 70 6376, read-out: MIC",0.25 µg/mL
same,MIC,"C. difficile; Clostridioides difficile, isolate ORG ID 71 6379, read-out: MIC",0.25 µg/mL
same,MIC,"C. difficile; Clostridioides difficile, isolate ORG ID 72 6380, read-out: MIC",0.25 µg/mL
same,MIC,"C. difficile; Clostridioides difficile, isolate ORG ID 73 6382, read-out: MIC",0.25 µg/mL
same,MIC,"C. difficile; Clostridioides difficile, isolate ORG ID 76 6389, read-out: MIC",0.25 µg/mL
same,MIC,"C. difficile; Clostridioides difficile, isolate ORG ID 78 6392, read-out: MIC",0.03 µg/mL
same,MIC,"C. difficile; Clostridioides difficile, isolate ORG ID 82 6329, read-out: MIC",0.03 µg/mL
same,MIC,"C. difficile; Clostridioides difficile, isolate ORG ID 84 6331, read-out: MIC",0.25 µg/mL
same,MIC,"C. difficile; Clostridioides difficile, isolate ORG ID 88 6335, read-out: MIC",0.25 µg/mL
same,MIC,"C. difficile; Clostridioides difficile, isolate ORG ID 89 6336, read-out: MIC",0.5 µg/mL
same,MIC,"C. difficile; Clostridioides difficile, isolate ORG ID 94 6343, read-out: MIC",0.06 µg/mL
same,MIC,"C. difficile; Clostridioides difficile, isolate ORG ID 98 6350, read-out: MIC",0.5 µg/mL
same,MIC,"C. difficile; Clostridioides difficile, isolate ORG ID 100 6353, read-out: MIC",0.25 µg/mL
same,MIC,"C. difficile; Clostridioides difficile, isolate ORG ID 101 6354, read-out: MIC",0.06 µg/mL
same,MIC,"C. difficile; Clostridioides difficile, isolate ORG ID 104 6060, read-out: MIC",0.25 µg/mL
same,MIC,"C. difficile; Clostridioides difficile, isolate ORG ID 106 6078, read-out: MIC",0.25 µg/mL
same,MIC,"C. difficile; Clostridioides difficile, isolate ORG ID 115 5985, read-out: MIC",0.25 µg/mL
same,MIC,"C. difficile; Clostridioides difficile, isolate ORG ID 120 6057, read-out: MIC",0.25 µg/mL
same,MIC,"C. difficile; Clostridioides difficile, isolate ORG ID 121 6072, read-out: MIC",0.25 µg/mL
same,MIC,"C. difficile; Clostridioides difficile, isolate ORG ID 122 6111, read-out: MIC",0.25 µg/mL
same,MIC,"C. difficile; Clostridioides difficile, isolate ORG ID A1 1535, read-out: MIC",0.25 µg/mL
same,MIC,"C. difficile; Clostridioides difficile, isolate ORG ID AH1 3430, read-out: MIC",0.25 µg/mL
same,MIC,"C. difficile; Clostridioides difficile, isolate ORG ID BE1 4307, read-out: MIC",0.25 µg/mL
same,MIC,"C. difficile; Clostridioides difficile, isolate ORG ID BH1 4506, read-out: MIC",0.06 µg/mL
same,MIC,"C. difficile; Clostridioides difficile, isolate ORG ID BN1 1322, read-out: MIC",0.25 µg/mL
same,MIC,"C. difficile; Clostridioides difficile, isolate ORG ID BV1 1183, read-out: MIC",0.25 µg/mL
same,MIC,"C. difficile; Clostridioides difficile, isolate ORG ID BX1 4271, read-out: MIC",0.25 µg/mL
same,MIC,"C. difficile; Clostridioides difficile, isolate ORG ID CJ1 893, read-out: MIC",0.025 µg/mL
same,MIC,"C. difficile; Clostridioides difficile, isolate ORG ID CN1 667, read-out: MIC",0.25 µg/mL
same,MIC,"C. difficile; Clostridioides difficile, isolate ORG ID CP1 5491, read-out: MIC",0.25 µg/mL
same,MIC,"C. difficile; Clostridioides difficile, isolate ORG ID D1 1360, read-out: MIC",0.25 µg/mL
same,MIC,"C. difficile; Clostridioides difficile, isolate ORG ID J1 5971, read-out: MIC",0.25 µg/mL
same,MIC,"C. difficile; Clostridioides difficile, isolate ORG ID K1 4305, read-out: MIC",0.25 µg/mL
same,MIC,"C. difficile; Clostridioides difficile, isolate ORG ID R6 6015, read-out: MIC",0.25 µg/mL
same,MIC,"C. difficile; Clostridioides difficile, isolate ORG ID W1 3931, read-out: MIC",0.5 µg/mL
same,MIC90,"C. difficile; Clostridioides difficile, 110 clinical isolates, agar dilution",0.25 µg/mL
same,MIC,"C. difficile; Clostridioides difficile, 110 clinical isolates, agar dilution, read-out: Geometric Mean (MIC)",0.15 µg/mL
same,protection from infection (cumulative mortality over 20 days),toxigenic C. difficile,protected the animals from infection
